Source: patent US20140005163A1 (NOVARTIS AG, priority 2010, published 2014)

Experiments:
PI3K delta = biological target: T1, PI3K delta (Homo sapiens, UniProt O00329); test: PI3K delta kinase assay (Kinase-Glo luminescence); format: biochemical
T1 construct: for the full-length p110-d subunit are generated and fused by overlapping PCR; p85(iSH2) fusion partner (see partner chain) (N); His tag (C); made in house; host or cells: baculovirus; Tn5 (Trichoplusia ni) or TiniPro insect cells
Method in brief: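 Recombinant p85(iSH2)-Gly linker-p110δ full-length construct (BV1060, C-terminal His tag) was used at 10 nM with 10 μg/mL phosphatidylinositol and 1 μM ATP in 10 mM Tris-HCl pH 7.5, 3 mM MgCl2, 50 mM NaCl, 0.05% CHAPS, 1 mM DTT. After 60 min at room temperature, remaining ATP was measured by Kinase-Glo luminescence.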

mTOR = biological target: T2, mTOR (Homo sapiens, UniProt P42345); test: Biochemical assay for m-TOR by TR-FRET; details: 8 μM ATP, 400 nM GFP-4EBP1, 0.5 nM mTOR
T2 construct: purchased Invitrogen Corporation (Carlsbad/CA, USA) PV4753
Method in brief: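 mTOR (0.5 nM) was incubated at rt with ATP (8 μM final) and GFP-4EBP1 (400 nM final) in 50 mM HEPES pH 7.5, 10 mM MnCl2, 50 mM NaCl, 1 mM EGTA, 1 mM DTT. EDTA stop with Tb3+-anti-p4EBP1 [pThr46] antibody (0.5 nM); TR-FRET read 15 min later.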

[1] = test system: S6 Ribosomal Protein phosphorylation Ser235/236 in TSC1 null mouse embryo fibroblast (MEF) cells; test: Reverse protein array assay, S6 Ribosomal Protein phosphorylation Ser235/236 in TSC1 null MEF cells; format: cell-based; details: 1 h, pS6 ribosomal protein Ser235/236, 60 minutes incubation, read-out: p-S6 IC50
Method in brief: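 TSC1−/− MEFs, seeded and held ≥20 h at 37 °C/5% CO2, were exposed to 8-step serial compound dilutions (0.02% DMSO final; DMSO vehicle control) for 60 min at 37 °C. Cells were then lysed on ice for 10 min and lysates spotted onto reverse protein array chips.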

T1 sequence (O00329 with tags, fused parts or gaps limits assumed): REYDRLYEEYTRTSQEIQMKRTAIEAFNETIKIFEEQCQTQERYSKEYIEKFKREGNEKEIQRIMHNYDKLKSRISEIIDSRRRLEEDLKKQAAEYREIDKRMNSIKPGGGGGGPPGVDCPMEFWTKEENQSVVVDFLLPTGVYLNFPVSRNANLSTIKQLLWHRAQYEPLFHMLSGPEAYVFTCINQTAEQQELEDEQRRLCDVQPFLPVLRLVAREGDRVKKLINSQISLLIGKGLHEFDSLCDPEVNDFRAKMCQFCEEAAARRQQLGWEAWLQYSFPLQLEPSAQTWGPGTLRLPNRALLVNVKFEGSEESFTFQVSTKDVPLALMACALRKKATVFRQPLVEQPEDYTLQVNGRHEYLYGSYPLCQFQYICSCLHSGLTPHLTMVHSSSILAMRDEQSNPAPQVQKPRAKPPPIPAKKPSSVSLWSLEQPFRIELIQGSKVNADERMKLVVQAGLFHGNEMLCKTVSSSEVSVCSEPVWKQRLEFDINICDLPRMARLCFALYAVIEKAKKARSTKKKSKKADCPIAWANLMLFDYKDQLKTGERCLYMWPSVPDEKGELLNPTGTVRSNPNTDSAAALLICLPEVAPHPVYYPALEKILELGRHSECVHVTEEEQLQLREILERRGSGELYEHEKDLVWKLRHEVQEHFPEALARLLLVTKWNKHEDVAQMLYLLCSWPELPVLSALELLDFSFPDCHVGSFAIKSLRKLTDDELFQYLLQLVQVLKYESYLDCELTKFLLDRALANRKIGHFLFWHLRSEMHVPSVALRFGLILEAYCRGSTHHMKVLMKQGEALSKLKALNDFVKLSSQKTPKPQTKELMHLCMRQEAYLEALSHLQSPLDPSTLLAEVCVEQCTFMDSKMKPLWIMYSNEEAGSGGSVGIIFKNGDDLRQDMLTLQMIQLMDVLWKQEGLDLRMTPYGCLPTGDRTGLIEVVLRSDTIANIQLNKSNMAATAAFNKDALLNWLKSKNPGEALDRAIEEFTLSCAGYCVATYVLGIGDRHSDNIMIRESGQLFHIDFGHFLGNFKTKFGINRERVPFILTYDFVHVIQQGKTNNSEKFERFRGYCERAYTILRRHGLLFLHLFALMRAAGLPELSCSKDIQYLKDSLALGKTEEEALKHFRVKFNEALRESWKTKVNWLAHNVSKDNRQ
T2 sequence (P42345 1360-2549 limits assumed): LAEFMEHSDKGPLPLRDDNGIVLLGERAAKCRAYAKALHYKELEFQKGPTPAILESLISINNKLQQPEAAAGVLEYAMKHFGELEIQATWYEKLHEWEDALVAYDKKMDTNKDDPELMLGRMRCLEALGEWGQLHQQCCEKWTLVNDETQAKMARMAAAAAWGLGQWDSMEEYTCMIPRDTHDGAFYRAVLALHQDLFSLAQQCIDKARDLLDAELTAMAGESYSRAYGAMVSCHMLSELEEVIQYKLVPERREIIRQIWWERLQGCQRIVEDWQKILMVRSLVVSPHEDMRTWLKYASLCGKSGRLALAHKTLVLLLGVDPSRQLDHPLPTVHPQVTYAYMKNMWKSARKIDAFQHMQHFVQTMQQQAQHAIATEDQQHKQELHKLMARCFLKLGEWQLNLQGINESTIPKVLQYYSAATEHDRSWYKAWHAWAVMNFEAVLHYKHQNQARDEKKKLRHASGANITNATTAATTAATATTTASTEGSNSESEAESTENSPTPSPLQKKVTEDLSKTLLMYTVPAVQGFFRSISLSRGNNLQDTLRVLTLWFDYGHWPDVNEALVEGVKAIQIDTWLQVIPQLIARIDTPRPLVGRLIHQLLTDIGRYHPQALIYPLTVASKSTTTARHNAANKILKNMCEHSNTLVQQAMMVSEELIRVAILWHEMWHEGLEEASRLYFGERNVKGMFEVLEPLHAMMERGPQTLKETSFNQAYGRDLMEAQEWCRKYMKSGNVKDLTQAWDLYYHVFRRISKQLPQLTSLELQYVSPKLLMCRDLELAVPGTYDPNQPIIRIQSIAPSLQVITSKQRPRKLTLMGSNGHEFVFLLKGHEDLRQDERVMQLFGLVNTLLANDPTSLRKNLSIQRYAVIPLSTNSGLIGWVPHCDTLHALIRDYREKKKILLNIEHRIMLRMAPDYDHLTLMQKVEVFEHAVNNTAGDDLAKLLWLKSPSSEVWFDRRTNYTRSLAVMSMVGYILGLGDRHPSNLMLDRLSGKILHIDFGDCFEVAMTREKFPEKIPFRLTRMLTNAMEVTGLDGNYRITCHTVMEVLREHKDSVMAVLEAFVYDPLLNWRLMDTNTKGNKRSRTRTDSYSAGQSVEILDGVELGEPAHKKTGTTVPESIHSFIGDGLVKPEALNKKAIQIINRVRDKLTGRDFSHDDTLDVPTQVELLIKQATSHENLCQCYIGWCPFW

SMILES	IC50 (PI3K delta)	IC50 (mTOR)	IC50 [1]
CCOc1ccc(-c2ccc3ncc4c(c3c2)n(-c2cn(CC)nc2C)c(=O)n4C)cn1 [Example 3.5, 8-(6-Ethoxy-pyridin-3-yl)-1-(1-ethyl-3-methyl-1H-pyrazol-4-yl)-3-methyl-1,3-dihydro-imidazo[4,5-c]quinolin-2-one]	40 nM	17 nM	58 nM
[2H]C([2H])([2H])OCc1ncc(-c2ccc3ncc4c(c3c2)n(-c2cn(C)nc2Cl)c(=O)n4C)cc1OC [Example 199, 1-(3-Chloro-1-methyl-1H-pyrazol-4-yl)-8-(5-methoxy-6-trideuteromethoxymethyl-pyridin-3-yl)-3-methyl-1,3-dihydro-imidazo[4,5-c]quinolin-2-one]	5 nM	12 nM	2 nM
CCn1cc(-n2c(=O)n(C)c3cnc4ccc(-c5ccc(OCCOC)c(OC)c5)cc4c32)c(C)n1 [Example 30.2, 1-(1-Ethyl-3-methyl-1H-pyrazol-4-yl)-8-[3-methoxy-4-(2-methoxy-ethoxy)-phenyl]-3-methyl-1,3-dihydro-imidazo[4,5-c]quinolin-2-one]	42 nM	54 nM	41 nM
Cc1nn(C)cc1-n1c(=O)n(C)c2cnc3ccc(-c4ccc5c(c4)CC(=O)N5)cc3c21 [Example 49, 1-(1,3-Dimethyl-1H-pyrazol-4-yl)-3-methyl-8-(2-oxo-2,3-dihydro-1H-indol-5-yl)-1,3-dihydro-imidazo[4,5-c]quinolin-2-one]	106 nM	46 nM	217 nM
COc1ccc(-c2ccc3ncc4[nH]c(=O)n(-c5cn(C)nc5C)c4c3n2)cc1OC [Example 249, 8-(3,4-dimethoxy-phenyl)-1-(1,3-dimethyl-1H-pyrazol-4-yl)-1,3-dihydro-1,3,5,9-tetraaza-cyclopenta[a]naphthalen-2-one]	8 nM	30 nM	2 nM
Cc1noc(C)c1-n1c(=O)n(C)c2cnc3ccc(-c4cnc(N)c(Cl)c4)cc3c21 [Example 148.4, 8-(6-Amino-5-chloro-pyridin-3-yl)-1-(3,5-dimethyl-isoxazol-4-yl)-3-methyl-1,3-dihydro-imidazo[4,5-c]quinolin-2-one]	45 nM	678 nM	17.7 nM
CCn1cc(-n2c(=O)n(C)c3cnc4ccc(-c5cnc(COC)c(OC)c5)cc4c32)c(C)n1 [Example 195.3, 1-(1-Ethyl-3-methyl-1H-pyrazol-4-yl)-8-(5-methoxy-6-methoxymethyl-pyridin-3-yl)-3-methyl-1,3-dihydro-imidazo[4,5-c]quinolin-2-one]	34 nM	76 nM	31 nM
COc1ccc(-c2ccc3ncc4c(c3n2)n(-c2cn(C)nc2C)c(=O)n4C)cc1OC [Example 250, 8-(3,4-Dimethoxy-phenyl)-1-(1,3-dimethyl-1H-pyrazol-4-yl)-3-methyl-1,3-dihydro-1,3,5,9-tetraaza-cyclopenta[a]naphthalen-2-one]	17 nM	135 nM	13 nM
CCNc1cc(-c2ccc3ncc4c(c3c2)n(-c2c(C)nn(CC(=O)N(C)C)c2C)c(=O)n4C)cnc1C [Example 87.5, 2-{4-[8-(5-Ethylamino-6-methyl-pyridin-3-yl)-3-methyl-2-oxo-2,3-dihydro-imidazo[4,5-c]quinolin-1-yl]-3,5-dimethyl-pyrazol-1-yl}-N,N-dimethyl-acetamide]	35 nM	29 nM	180 nM
CNC(=O)c1ccc(-c2ccc3ncc4c(c3c2)n(-c2cn(C(C)C)nc2C)c(=O)n4C)cn1 [Example 15.3, 5-[1-(1-Isopropyl-3-methyl-1H-pyrazol-4-yl)-3-methyl-2-oxo-2,3-dihydro-1H-imidazo[4,5-c]quinolin-8-yl]-pyridine-2-carboxylic acid methylamide]	329 nM	12 nM	17 nM
Cc1nn(C)cc1-n1c(=O)n(C)c2cnc3ccc(-c4ccc(OCCO)nc4)cc3c21 [Example 107, 1-(1,3-Dimethyl-1H-pyrazol-4-yl)-8-[6-(2-hydroxy-ethoxy)-pyridin-3-yl]-3-methyl-1,3-dihydro-imidazo[4,5-c]quinolin-2-one]	28 nM	60 nM	46 nM

The next lines start with results.

IC50 (PI3K delta)	IC50 (mTOR)	SMILES	IC50 [1]
5 nM	6 nM	COc1ccc(-c2ccc3ncc4c(c3c2)n(-c2cn(C)nc2C)c(=O)n4C)cc1OC [Example 1.8, 8-(3,4-Dimethoxy-phenyl)-1-(1,3-dimethyl-1H-pyrazol-4-yl)-3-methyl-1,3-dihydro-imidazo[4,5-c]quinolin-2-one]	< 5 nM
51 nM	30 nM	COc1ncc(-c2ccc3ncc4c(c3c2)n(-c2cn(C)nc2C)c(=O)n4C)cc1NC(C)=O [Example 64, N-{5-[1-(1,3-Dimethyl-1H-pyrazol-4-yl)-3-methyl-2-oxo-2,3-dihydro-1H-imidazo[4,5-c]quinolin-8-yl]-2-methoxy-pyridin-3-yl}-acetamide]	5 nM
98 nM	7 nM	CNc1ncc(-c2ccc3ncc4c(c3c2)n(-c2cn(C)nc2C)c(=O)n4C)cc1F [Example 141.2, 1-(1,3-Dimethyl-1H-pyrazol-4-yl)-8-(5-fluoro-6-methylamino-pyridin-3-yl)-3-methyl-1,3-dihydro-imidazo[4,5-c]quinolin-2-one]	1 nM
6 nM	< 3 nM	Cc1nn(C)cc1-n1c(=O)n(C)c2cnc3ccc(-c4cnc5cc[nH]c5c4)cc3c21 [Example 99, 1-(1,3-Dimethyl-1H-pyrazol-4-yl)-3-methyl-8-(1H-pyrrolo[3,2-b]pyridin-6-yl)-1,3-dihydro-imidazo[4,5-c]quinolin-2-one]	4 nM
4 nM	< 3 nM	Cc1ncc(-c2ccc3ncc4c(c3c2)n(-c2cn(C)nc2C)c(=O)n4C)cc1N(C)C [Example 164, 8-(5-Dimethylamino-6-methyl-pyridin-3-yl)-1-(1,3-dimethyl-1H-pyrazol-4-yl)-3-methyl-1,3-dihydro-imidazo[4,5-c]quinolin-2-one]	1 nM
14 nM	48 nM	COCc1ncc(-c2ccc3ncc4c(c3c2)n(-c2cn(C)nc2C)c(=O)n4C)cc1OC [Example 195.1, 1-(1,3-Dimethyl-1H-pyrazol-4-yl)-8-(5-methoxy-6-methoxymethyl-pyridin-3-yl)-3-methyl-1,3-dihydro-imidazo[4,5-c]quinolin-2-one]	5 nM
9 nM	< 3 nM	Cc1ncc(-c2ccc3ncc4c(c3c2)n(-c2cn(C)nc2C)c(=O)n4C)cc1O [Example 185.1, 1-(1,3-Dimethyl-1H-pyrazol-4-yl)-8-(5-hydroxy-6-methyl-pyridin-3-yl)-3-methyl-1,3-dihydro-imidazo[4,5-c]quinolin-2-one]	35 nM
7 nM	8 nM	CNc1cc(-c2ccc3ncc4c(c3c2)n(-c2cn(C)nc2C)c(=O)n4C)cnc1F [Example 150.2, 1-(1,3-Dimethyl-1H-pyrazol-4-yl)-8-(6-fluoro-5-methylamino-pyridin-3-yl)-3-methyl-1,3-dihydro-imidazo[4,5-c]quinolin-2-one]	1 nM
11 nM	9 nM	Cc1nn(C)cc1-n1c(=O)n(C)c2cnc3ccc(-c4cncc(C(C)(C)O)c4)cc3c21 [Example 215.2, 1-(1,3-Dimethyl-1H-pyrazol-4-yl)-8-[5-(1-hydroxy-1-methyl-ethyl)-pyridin-3-yl]-3-methyl-1,3-dihydro-imidazo[4,5-c]quinolin-2-one]	3 nM
4 nM	4 nM	Cc1ncc(-c2ccc3ncc4c(c3c2)n(-c2cn(C)nc2C)c(=O)n4C)cc1OC(C)C [Example 84.1, 1-(1,3-Dimethyl-1H-pyrazol-4-yl)-8-(5-isopropoxy-6-methyl-pyridin-3-yl)-3-methyl-1,3-dihydro-imidazo[4,5-c]quinolin-2-one]	2 nM
40 nM	7 nM	CCOc1ccc(-c2ccc3ncc4c(c3c2)n(-c2cn(C)nc2C)c(=O)n4C)cc1OC [Example 29.3, 1-(1,3-Dimethyl-1H-pyrazol-4-yl)-8-(4-ethoxy-3-methoxy-phenyl)-3-methyl-1,3-dihydro-imidazo[4,5-c]quinolin-2-one]	4 nM
29 nM	179 nM	Cc1nn(C)cc1-n1c(=O)n(C)c2cnc3ccc(-c4cnc5c(c4)nnn5C)cc3c21 [Example 72, 1-(1,3-Dimethyl-1H-pyrazol-4-yl)-3-methyl-8-(3-methyl-3H-[1,2,3]triazolo[4,5-b]pyridin-6-yl)-1,3-dihydro-imidazo[4,5-c]quinolin-2-one]	58 nM
8 nM	27 nM	Cc1nn(C)cc1-n1c(=O)n(C)c2cnc3ccc(-c4cncc(C(C)(C)C#N)c4)cc3c21 [Example 220.1, 2-{5-[1-(1,3-Dimethyl-1H-pyrazol-4-yl)-3-methyl-2-oxo-2,3-dihydro-1H-imidazo[4,5-c]quinolin-8-yl]-pyridin-3-yl}-2-methyl-propionitrile]	1 nM
